From publication PMC9598282 (Antibiotics, 2022)
Bridge positions count the residues as written; N and C are the ends. Square brackets hold non-standard residues; d marks the D form. Peptide text beside a SMILES is read from it. Dab = NCC[C@H](N)C(=O)O

Key:
K. pneumoniae 113250 = assay: Checkerboard assay; format: cell-based, Klebsiella pneumoniae
Description: (§1) The adjuvant properties of the guanidinylated polymyxins were evaluated using the checkerboard assay as previously described. The bacterial solution was prepared as described in the antimicrobial susceptibility assay. The antibiotic of interest and the adjuvant were serially diluted two-fold along the x- and y-axis on a 96-well plate, respectively, resulting in varying concentrations of both agents in each well. Equal volumes of bacterial solution were added to the designated wells. The well consisting of bacterial solution served as the positive control, while the wells containing only media served as the negative control. The plate was then incubated at 37 °C for 18 h. After incubation, an Emax Plus microplate reader (Molecular Devices, Union City, CA, USA) was used to measure the OD at a wavelength of 590 nm to confirm the turbidity. The fractional inhibitory concentration (FIC) index was then determined to establish the relationship between the antibiotic and adjuvant. The FIC index corresponds to the sum of the FICs of the antibiotic and adjuvant. The FIC of each agent is calculated by dividing its MIC when it is used in combination by its MIC when used alone. FIC indices ≤0.5, 0.5 < x ≤ 4 and >4 indicate synergy, additivity and antagonism, respectively.

K. pneumoniae 113254 = assay: Checkerboard assay; format: cell-based, Klebsiella pneumoniae
Description: as §1

A. baumannii 92247 [1] = format: cell-based, Acinetobacter baumannii; details: 92247, 18 h
Summary of the method: (§2)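 Broth microdilution, Mueller–Hinton; inoculum 5 × 10^5 CFU/mL (from 0.5 McFarland saline suspension); 2-fold agent series; 37 °C, 18 h; OD590 read; MIC = lowest conc. with no visible growth.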

A. baumannii ATCC 17978 = format: cell-based, Acinetobacter baumannii; details: ATCC 17978, 18 h
Summary of the method: as §2

E. coli ATCC 25922 = format: cell-based, Escherichia coli; details: ATCC 25922, 18 h
Description: For the preparation of the bacterial solution, overnight grown culture was diluted in 0.85% saline solution, adjusted to 0.5 McFarland turbidity and further diluted in Mueller–Hinton broth for inoculation to a final concentration of 5 × 10^5 colony forming units/mL (CFU/mL). The agents were serially diluted two-fold in a 96-well plate, and equal volumes of bacterial solution were subsequently added to the designated wells. The well consisting of bacterial solution served as the positive control, while the well containing only media served as the negative control. The plate was then incubated at 37 °C for 18 h. After incubation, an Emax Plus microplate reader (Molecular Devices, Union City, CA, USA) was used to measure the optical density (OD) at a wavelength of 590 nm to confirm the turbidity. The antibacterial activity corresponded to the MIC, which is defined as the lowest concentration of the agent necessary to inhibit visible bacterial growth.

A. baumannii AB031 = assay: Checkerboard assay; format: cell-based, Acinetobacter baumannii
Description: as §1

A. baumannii 92247 [2] = assay: microbe, parasite or virus in culture; format: cell-based, Acinetobacter baumannii
Summary of the method: (§3)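 Antibiotic and guanidinylated polymyxin adjuvant were two-fold serially diluted across perpendicular axes, combined with bacterial suspension and incubated 18 h at 37 °C. Turbidity was read as OD590. FIC index is the sum of each agent's MIC in combination divided by its MIC alone: ≤0.5 synergy, 0.5–4 additivity, >4 antagonism.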

A. baumannii 110193 = assay: microbe, parasite or virus in culture; format: cell-based, Acinetobacter baumannii
Summary of the method: as §3

A. baumannii AB027 = assay: microbe, parasite or virus in culture; format: cell-based, Acinetobacter baumannii
Summary of the method: as §3

[3] = agent alone, one value per checkerboard plate

CC(C)C[C@@H]1NC(=O)[C@@H](Cc2ccccc2)NC(=O)[C@H](CCN)NC(=O)[C@@H](NC(=O)[C@H](CCN)NC(=O)[C@@H](N)[C@@H](C)O)CCNC(=O)[C@H]([C@@H](C)O)NC(=O)[C@H](CCN)NC(=O)[C@H](CCN)NC1=O [PMBN, polymyxin B nonapeptide] (H-T[Dab][Dab][Dab][dF]L[Dab][Dab]T; lactam 3-C (inferred); N-terminus assumed)
4: Fold-potentiation of erythromycin (K. pneumoniae 113254; with 8 μg/mL adjuvant) | Fold-potentiation of rifampicin (K. pneumoniae 113254; with 8 μg/mL adjuvant) | Fold-potentiation of erythromycin (A. baumannii AB031; with 0.5 μg/mL adjuvant) | Fold-potentiation of erythromycin (A. baumannii 110193; with 1 μg/mL adjuvant)
> 256 µg/mL: MIC alone (K. pneumoniae 113250; [3]) | MIC alone (K. pneumoniae 113254; [3]) | MIC alone (A. baumannii AB031; [3]) | MIC alone (A. baumannii 110193; [3]) | MIC alone (A. baumannii AB027; [3])
32: Fold-potentiation of rifampicin (A. baumannii 92247 [2]; with 8 μg/mL adjuvant) | Fold-potentiation of rifampicin (A. baumannii 110193; with 1 μg/mL adjuvant)
>256 µg/mL: MIC (A. baumannii 92247 [1]) | MIC (A. baumannii ATCC 17978) | MIC (E. coli ATCC 25922)
1: Fold potentiation of aztreonam (A. baumannii AB031; with 0.5 μg/mL adjuvant) | Fold-potentiation of ceftazidime (A. baumannii AB031; with 0.5 μg/mL adjuvant) | Fold potentiation of aztreonam (A. baumannii 92247 [2]; with 8 μg/mL adjuvant) | Fold-potentiation of ceftazidime (A. baumannii 92247 [2]; with 8 μg/mL adjuvant) | Fold-potentiation of erythromycin (A. baumannii 92247 [2]; with 8 μg/mL adjuvant) | Fold-potentiation of ceftazidime (A. baumannii 110193; with 1 μg/mL adjuvant)
2: Fold potentiation of aztreonam (A. baumannii AB027; with 8 μg/mL adjuvant) | Fold-potentiation of ceftazidime (A. baumannii AB027; with 8 μg/mL adjuvant)
64: Fold-potentiation of rifampicin (A. baumannii AB027; with 8 μg/mL adjuvant)
16: Fold-potentiation of erythromycin (A. baumannii AB027; with 8 μg/mL adjuvant)
256 µg/mL: MIC alone (A. baumannii 92247 [2]; 92247, 18 h) | MIC alone (A. baumannii 110193; 110193, 18 h) | MIC alone (A. baumannii AB027; AB027, 18 h)
8: Fold-potentiation of erythromycin (K. pneumoniae 113250; with 8 μg/mL adjuvant) | Fold-potentiation of rifampicin (K. pneumoniae 113250; with 8 μg/mL adjuvant) | Fold-potentiation of rifampicin (A. baumannii AB031; with 0.5 μg/mL adjuvant)
